Columns and labels:
[1] = system: Crabgrass; assay: Test 3 postemergence weed control; type: in vivo, Digitaria spp; details: scale 0-100
Procedure: Seeds of crabgrass (Digitaria spp), guinea grass (Panicum maximum) and narrowleaf panicum (P. maximum) were planted in 15-cm plastic pots. The weeds were treated postemergence with compound I, formulated in a non-phytotoxic solvent, when the plants had 3 or more leaves and had tillered. The degree of weed control was visually rated 17 days after compound application (DAT). Control ratings were based on a scale of 0 to 100 where 0 = no effect, 20 = minimal control and 100 = complete control.

[2] = system: Kochia; assay: Test 7 postemergence; type: in vivo, Kochia spp; details: scale 0-100
Procedure: Individual 11.4-cm plastic pots filled with planting medium were seeded with rape, wild radish (Raphanus raphanistruna). tansy mustard (Descurainia pinnata), ball mustard (Neslia paniculata), black mustard (Brassica nigra), yellow mustard, brown mustard, lentils, safflower, flax, sunflower, peanut, vetch, alfalfa, field bean, pea, violet (Viola spp), Kochia (Kochia spp), Russian thistle (Salsola spp), Matricaria spp, groundsel (Senecio spp), shepherdspurse (Capsella bursa-pastoris), nightshade (Solanum spp), sowthistle (Sonchus spp), sugar beet, wheat, "Bonanza" barley and "Morex" barley, Kentucky bluegrass (Poa pratensis), red clover (Trifolium pratense), dandelion (Taraxacum spp) and buckhorn plantain (Plantago lanceolata).
Plants were treated postemergence with the compound formulated with a non-phytotoxic carrier. Plants were visually rated 18 days after treatment (DAT). Response ratings were based on the scale of 0 to 100 where 0 = no effect, 20 = minimal injury and 100 = complete control.

[3] = system: Quackgrass; assay: Test 9 postemergence; type: in vivo, Agropyron repens; details: scale 0-100
Procedure: (§1) Plastic windowsill pots containing planting medium were seeded with bahiagrass, bindweed (Convolvulus spp), guinea grass (Panicum maximum), large crabgrass (Digitaria sanguinalis) and pigweed (Amaranthus spp). Individual 15-cm plastic pots contained sandbur (Cenchrus echinatus), Mikania cordata, Boston fern (Nephrolepis exalata), quackgrass (Agropyron repens), elephantgrass (Pennisetum purpureum) and sowthistle (Sonchus spp) plants.
(§2) Plants were treated postemergence with Compound I formulated in a non-phytotoxic solvent. Plants were visually rated 22 days after treatment (DAT). Injury and weed control ratings were based on the scale of 0 to 100 where 0 = no effect, 20 = minimal control and 100 = complete control.

[4] = system: Coffee; assay: Test 9 postemergence; type: in vivo; details: scale 0-100
Procedure: as §1, §2

[5] = system: Era wheat; assay: Test 10 postemergence safety to crops and weed control; type: in vivo; details: 16 g/ha, scale 0-100
Procedure: (§3) The object of these tests was to evaluate the compound of this invention for postemergence safety to crops and weed control. Seedling and budded Macedine grapes were grown in 11.4-cm pots. Flax, green foxtail (Setaria viridis), "Morex" barley, wild oats (Avena fatua), "Era" wheat, annual ryegrass (Lolium multiflorum), wild radish (Raphanus raphanistrum), rape, sunflower, chickweed (Stellaria media) and wild buckwheat (Polygonum convolvulus) were seeded in windowsill pots.
(§4) The plants were sprayed postemergence with Compound I in a non-phytotoxic solvent. Plants were visually rated 15 and 27 days after treatment (DAT). Injury and weed control ratings were based on the scale of 0 to 100 where 0 = no effect, 20 minimal control and 100 = complete control.

[6] = system: Morex barley; assay: as above; type: in vivo; details: 16 g/ha, scale 0-100
Procedure: as §3, §4

[7] = system: Rape; assay: as above; type: in vivo; details: 16 g/ha, scale 0-100
Procedure: as §3, §4

[8] = system: Sunflower; assay: as above; type: in vivo; details: 16 g/ha, scale 0-100
Procedure: as §3, §4

[9] = system: Guineagrass; assay: Test 11 citrus pots, preemergence to the weeds; type: in vivo, Panicum maximum; details: Preemergence 32 g/ha; 0.25% X-77 surfactant; scale 0-100
Procedure: (§5) Budded citrus seedlings were planted in 30-liter plastic pots which were also seeded with sandbur, guineagrass, narrowleaf panicum, common ragweed, yellow nutsedge, purple nutsedge and bindweed. Compound I was applied preemergence and postemergence to the weeds. Treatments were sprayed to simulate the trunk-to-trunk herbicide application method used in some citrus groves. The compound was also applied postemergence to weeds grown in windowsill flats. The flats were filled with planting medium and seeded with morningglory (Ipomoea spp.). purple nutsedge (Cyperus rotundus), pigweed (Amaranthus spp.), bindweed (Convolvulus spp.), narrowleaf panicum (Panicum maximum), common ragweed (Ambrosia artemisiifolia), sandbur (Cenchrus echinatus), itchgrass (Rottboellia exaltata), johnsongrass (Sorghum halepense), guineagrass (Panicum maximum), smooth crabgrass (Digitaria ischaemum), broadleaf signalgrass (Brachiaria platyphylla), bermudagrass (Cynodon dactylon), goosegrass (Eleusine indica), large crabgrass (Digitaria sanguinalis) and yellow nutsedge (Cyperus esculentus).
(§6) The compound was formulated and sprayed with 0.25% X-77 surfactant in water. Plants were visually rated 21 and 29 days after treatment and compared with appropriate controls. Injury ratings were based on the scale of 0 to 100, where 0 indicates no effect, 20 indicates minimum effect and 100 indicates complete control. […]

[10] = system: Narrowleaf panicum; assay: Test 11 citrus pots, preemergence to the weeds; type: in vivo, Panicum maximum; details: Preemergence 32 g/ha; 0.25% X-77 surfactant; scale 0-100
Procedure: as §5, §6

[11] = system: Citrus; assay: Test 11 citrus pots, postemergence to the weeds; type: in vivo; details: Postemergence 32 g/ha, 0.25% X-77 surfactant, scale 0-100
Procedure: as §5, §6

[12] = system: Guineagrass; assay: Test 11 citrus pots, postemergence to the weeds; type: in vivo, Panicum maximum; details: Postemergence 32 g/ha, 0.25% X-77 surfactant, scale 0-100
Procedure: as §5, §6

[13] = system: Narrowleaf panicum; assay: Test 11 citrus pots, postemergence to the weeds; type: in vivo, Panicum maximum; details: Postemergence 32 g/ha, 0.25% X-77 surfactant, scale 0-100
Procedure: as §5, §6

[14] = system: Purple nutsedge; assay: Test 11 citrus pots, postemergence to the weeds; type: in vivo, Cyperus rotundus; details: Postemergence 32 g/ha, 0.25% X-77 surfactant, scale 0-100
Procedure: as §5, §6

[15] = system: Bindweed; assay: Test 11 citrus pots, postemergence to the weeds; type: in vivo, Convolvulus spp.; details: Postemergence 32 g/ha, 0.25% X-77 surfactant, scale 0-100
Procedure: as §5, §6

[16] = system: Bermudagrass; assay: Test 11 windowsill flats, postemergence; type: in vivo, Cynodon dactylon; details: Postemergence 32 g/ha, 0.25% X-77 surfactant, scale 0-100
Procedure: as §5, §6

[17] = system: Goosegrass; assay: Test 11 windowsill flats, postemergence; type: in vivo, Eleusine indica; details: Postemergence 32 g/ha, 0.25% X-77 surfactant, scale 0-100
Procedure: as §5, §6

[18] = system: Lantana; assay: Test 12 over-the-top application, postemergence; type: in vivo, Lantana camara; details: 26 days after treatment, scale 0-100
Text: The object of this test was to evaluate the safety of sour lemon to the over-the-top application of Compound I and control of lantana (Lantana camara) and trumpetcreeper (Campsis radicans). Plants were sprayed postemergence with Compound I formulated in a non-phytotoxic solvent. Treated plants were visually rated 26 days after treatment and compared with appropriate controls. Injury ratings were based on the scale of 0 to 100, where 0 indicates no effect, 20 indicates minimal effect and 100 indicates complete control.

Compound: COC(=O)c1cccnc1S(=O)(=O)NC(=O)Nc1nc(OC)cc(OC)n1 [Compound I, 2-[[(4,6-dimethoxypyrimidin-2-yl)aminocarbonyl]aminosulfonyl]-3-pyridinecarboxylic acid, methyl ester]
- Control Rating 17 DAT ([1]; 8 g/ha): 50
- Control Rating 17 DAT ([1]; 16 g/ha): 70
- Control Rating 17 DAT ([1]; 32 g/ha): 100
- Plant Injury Rating 18 DAT ([2]; 16 g/ha): 100
- Plant Injury Rating 18 DAT ([2]; 32 g/ha): 100
- Plant Injury Rating 22 DAT ([3]; 8 g/ha): 70
- Plant Injury Rating 22 DAT ([3]; 16 g/ha): 90
- Plant Injury Rating 22 DAT ([3]; 32 g/ha): 100
- Plant Injury Rating 22 DAT ([4]; 8 g/ha): 0
- Plant Injury Rating 22 DAT ([4]; 16 g/ha): 0
- Plant Injury Rating 22 DAT ([4]; 32 g/ha): 0
- Plant Injury Rating 15 DAT [5]: 100
- Plant Injury Rating 15 DAT [6]: 100
- Plant Injury Rating 15 DAT [7]: 100
- Plant Injury Rating 15 DAT [8]: 100
- Injury ratings [9]: 100
- Injury ratings [10]: 80
- Injury ratings [11]: 0
- Injury ratings [12]: 100
- Injury ratings [13]: 90
- Injury ratings [14]: 90
- Injury ratings [15]: 100
- Injury ratings [16]: 20
- Injury ratings [17]: 90
- Injury ratings ([18]; 8 g/ha): 0
- Injury ratings ([18]; 16 g/ha): 10
- Injury ratings ([18]; 32 g/ha): 30
